In series [1] the target is B2 bradykinin receptor (Homo sapiens, UniProt P30411). Kind of series: Displacement of [3H]bradykinin from human recombinant B2 receptor after 60 mins by scintillation counting analysis. Background: In a radioligand displacement assay an active substance lowers the binding of a labelled ligand.
Series [2] deals with 5-hydroxytryptamine receptor 3A (Homo sapiens, UniProt P46098). The series is described as follows: Displacement of [3H]BRL 43694 from human recombinant 5-HT3 receptor after 120 mins by scintillation counting analysis.
Chain of 5-hydroxytryptamine receptor 3A (P46098 whole entry): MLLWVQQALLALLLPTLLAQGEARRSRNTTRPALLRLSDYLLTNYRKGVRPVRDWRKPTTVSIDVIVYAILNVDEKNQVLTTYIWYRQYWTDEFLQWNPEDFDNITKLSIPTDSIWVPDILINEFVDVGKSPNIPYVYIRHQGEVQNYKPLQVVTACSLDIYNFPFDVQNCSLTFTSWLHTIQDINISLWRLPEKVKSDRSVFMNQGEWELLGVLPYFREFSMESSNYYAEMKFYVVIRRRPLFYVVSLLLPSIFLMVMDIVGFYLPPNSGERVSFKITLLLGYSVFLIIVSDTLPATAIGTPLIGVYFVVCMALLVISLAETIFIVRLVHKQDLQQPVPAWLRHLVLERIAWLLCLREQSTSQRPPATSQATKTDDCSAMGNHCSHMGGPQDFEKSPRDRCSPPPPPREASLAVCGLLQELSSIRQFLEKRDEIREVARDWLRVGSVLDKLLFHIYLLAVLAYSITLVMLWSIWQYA
Series [3] has as its target Kappa-type opioid receptor (Homo sapiens, UniProt P41145). Kind of series: Displacement of [3H]U69593 from human kappa receptor at 10 uM after 60 mins by scintillation counting analysis relative to control.
The target in series [4] is T1, Beta-1 adrenergic receptor (Homo sapiens, UniProt P08588). The series is described as follows: Displacement of [3H](-)CGP 12177 from human beta1 adrenoceptor at 10 uM after 60 mins by scintillation counting analysis relative to control.
Target sequence in this assay (P08588 whole entry, looked up): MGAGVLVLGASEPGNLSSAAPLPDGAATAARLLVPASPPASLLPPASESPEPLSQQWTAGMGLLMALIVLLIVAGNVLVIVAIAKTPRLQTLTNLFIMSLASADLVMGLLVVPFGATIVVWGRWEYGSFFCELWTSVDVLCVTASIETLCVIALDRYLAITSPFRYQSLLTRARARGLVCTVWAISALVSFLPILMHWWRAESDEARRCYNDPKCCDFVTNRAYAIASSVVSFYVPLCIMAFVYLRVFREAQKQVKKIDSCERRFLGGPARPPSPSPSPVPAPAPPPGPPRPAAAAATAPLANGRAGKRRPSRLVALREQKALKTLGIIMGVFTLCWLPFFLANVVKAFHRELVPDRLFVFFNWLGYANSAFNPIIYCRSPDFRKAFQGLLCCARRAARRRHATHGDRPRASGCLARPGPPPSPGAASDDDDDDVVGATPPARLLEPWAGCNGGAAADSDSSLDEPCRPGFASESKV
Series [5] deals with Somatostatin receptor (Mus musculus) (UniProt P30935+O08858+P30875+P30873+P49660). The series is described as follows: Displacement of [125I]Tyr11-somatostatin-14 from mouse SST receptor at 10 uM after 60 mins by scintillation counting analysis relative to control. It counts as protein assay.
In series [6] the target is Cholecystokinin receptor type A (Homo sapiens) (UniProt P32238). Kind of series: Displacement of [125I]CCK-8s from human recombinant CCK1 receptor at 1 uM after 60 mins by scintillation counting analysis relative to control.
Chain of Cholecystokinin receptor type A (Homo sapiens) (P32238 whole entry): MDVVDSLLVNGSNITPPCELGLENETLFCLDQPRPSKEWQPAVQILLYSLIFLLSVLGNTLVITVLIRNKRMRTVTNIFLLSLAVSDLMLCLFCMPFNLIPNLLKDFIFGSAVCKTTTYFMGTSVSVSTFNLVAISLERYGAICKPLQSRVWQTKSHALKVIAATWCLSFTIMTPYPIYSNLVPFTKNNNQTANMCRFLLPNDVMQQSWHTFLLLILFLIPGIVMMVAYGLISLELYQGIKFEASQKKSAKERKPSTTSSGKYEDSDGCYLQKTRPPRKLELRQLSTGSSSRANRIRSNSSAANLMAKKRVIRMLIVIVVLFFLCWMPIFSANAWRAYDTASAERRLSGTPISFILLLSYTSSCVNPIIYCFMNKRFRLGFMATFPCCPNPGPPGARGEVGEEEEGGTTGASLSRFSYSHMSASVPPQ
The target of series [7] is T2, Cytochrome P450 1A2 (Homo sapiens, UniProt P05177).
T2 sequence (P05177 whole entry): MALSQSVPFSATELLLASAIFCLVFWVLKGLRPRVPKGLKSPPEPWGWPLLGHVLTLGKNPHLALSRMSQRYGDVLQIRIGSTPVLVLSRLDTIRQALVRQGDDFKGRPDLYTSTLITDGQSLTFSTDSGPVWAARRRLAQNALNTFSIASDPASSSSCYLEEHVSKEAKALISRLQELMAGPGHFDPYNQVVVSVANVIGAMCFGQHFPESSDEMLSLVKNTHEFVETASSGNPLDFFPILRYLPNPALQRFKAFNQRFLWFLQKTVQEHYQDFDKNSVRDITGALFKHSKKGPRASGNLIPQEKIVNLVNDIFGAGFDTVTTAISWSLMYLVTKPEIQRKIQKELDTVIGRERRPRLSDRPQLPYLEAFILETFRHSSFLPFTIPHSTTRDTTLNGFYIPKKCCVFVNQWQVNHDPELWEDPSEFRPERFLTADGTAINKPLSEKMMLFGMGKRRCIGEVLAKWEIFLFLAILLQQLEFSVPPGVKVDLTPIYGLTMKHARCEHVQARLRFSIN
Kind of series: Inhibition of CYP1A2 (unknown origin). It is filed as ADME.

The target of series [8] is T3, Nuclear receptor ROR-beta (Homo sapiens, UniProt Q92753).
T3 sequence (Q92753 whole entry): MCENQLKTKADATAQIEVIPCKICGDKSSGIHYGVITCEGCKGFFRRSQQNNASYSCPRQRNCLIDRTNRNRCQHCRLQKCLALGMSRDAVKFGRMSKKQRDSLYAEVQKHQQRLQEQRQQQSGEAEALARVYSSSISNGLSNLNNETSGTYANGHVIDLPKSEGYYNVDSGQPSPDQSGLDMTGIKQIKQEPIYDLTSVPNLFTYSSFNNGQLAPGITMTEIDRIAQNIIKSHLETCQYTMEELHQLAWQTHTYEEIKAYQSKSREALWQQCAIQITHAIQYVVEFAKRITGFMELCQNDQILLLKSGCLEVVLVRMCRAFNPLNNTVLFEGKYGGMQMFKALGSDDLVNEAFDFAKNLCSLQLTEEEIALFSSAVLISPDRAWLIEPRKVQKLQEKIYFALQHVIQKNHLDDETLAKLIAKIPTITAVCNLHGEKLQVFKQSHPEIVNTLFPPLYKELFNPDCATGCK
Kind of series: Binding affinity to recombinant human RORbeta LBD (201 to 452 residues) expressed in Escherichia coli BL21 (DE3) GOLD by 1,8-ANS dye-based thermofluor assay. (DSF heats the sample and reads unfolding from a dye or from intrinsic fluorescence.)

For series [9], the species on record is Homo sapiens. Kind of series: Binding affinity to GABA-gated chloride channel (unknown origin) at 1 uM by antagonist radioligand binding assay relative to control.
A short description of series [10]: Displacement of [3H]D 888 from rat brain L-type calcium channel verapamil binding site after 120 mins by scintillation counting analysis.
Series [11] concerns the target Casein kinase I isoform epsilon (Homo sapiens) (UniProt P49674). Kind of series: Inhibition of CK1epsilon (unknown origin) at 10 uM in presence of ATP relative to control.
Series [12] has as its target Adenosine receptor A1 (Homo sapiens) (UniProt P30542). Kind of series: Displacement of [3H]-DPCPX from human recombinant adenosine A1 receptor at 10 uM after 60 mins by scintillation counting analysis relative to control.
Series [13] in a line: Displacement of [125I]alpha-dendrotoxin from rat brain voltage-gated K channel after 60 mins by scintillation counting analysis.
Series [14] addresses T1, Beta-1 adrenergic receptor. Kind of series: Displacement of [3H](-)CGP 12177 from human beta1 adrenoceptor after 60 mins by scintillation counting analysis.
Target sequence in this assay (P08588 whole entry): as the sequence (P08588 whole entry, looked up) above
Series [15] concerns the target Histamine H2 receptor (Homo sapiens, UniProt P25021). Kind of series: Displacement of [125I]APT from human recombinant histamine H2 receptor at 1 uM after 120 mins by scintillation counting analysis relative to control.
Series [16] is filed under the species Homo sapiens. Kind of series: Binding affinity to GABA-gated chloride channel (unknown origin) at 10 uM by antagonist radioligand binding assay relative to control.
For series [17], the target named is T4, Cytochrome P450 2C8 (Homo sapiens, UniProt P10632).
T4 sequence (P10632 whole entry): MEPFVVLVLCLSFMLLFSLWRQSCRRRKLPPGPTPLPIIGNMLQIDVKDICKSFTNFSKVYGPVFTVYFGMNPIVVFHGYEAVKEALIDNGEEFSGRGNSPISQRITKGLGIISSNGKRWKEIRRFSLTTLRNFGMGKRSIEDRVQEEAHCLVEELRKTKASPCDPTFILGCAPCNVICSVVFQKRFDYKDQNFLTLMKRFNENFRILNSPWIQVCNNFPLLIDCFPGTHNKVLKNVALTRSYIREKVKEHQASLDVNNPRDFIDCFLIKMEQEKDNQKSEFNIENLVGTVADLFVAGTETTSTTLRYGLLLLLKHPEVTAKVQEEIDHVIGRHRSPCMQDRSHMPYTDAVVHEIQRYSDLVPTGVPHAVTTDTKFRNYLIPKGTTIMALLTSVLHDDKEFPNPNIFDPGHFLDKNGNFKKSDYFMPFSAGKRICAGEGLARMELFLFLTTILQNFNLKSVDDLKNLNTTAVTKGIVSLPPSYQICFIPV
Kind of series: Inhibition of CYP2C8 (unknown origin). It counts as ADME.

In series [18] the target is C-C chemokine receptor type 1 (Homo sapiens, UniProt P32246). Kind of series: Displacement of [125I]MIP-1alpha from human recombinant CCR1 receptor after 120 mins by scintillation counting analysis.
Chain of C-C chemokine receptor type 1 (P32246 whole entry): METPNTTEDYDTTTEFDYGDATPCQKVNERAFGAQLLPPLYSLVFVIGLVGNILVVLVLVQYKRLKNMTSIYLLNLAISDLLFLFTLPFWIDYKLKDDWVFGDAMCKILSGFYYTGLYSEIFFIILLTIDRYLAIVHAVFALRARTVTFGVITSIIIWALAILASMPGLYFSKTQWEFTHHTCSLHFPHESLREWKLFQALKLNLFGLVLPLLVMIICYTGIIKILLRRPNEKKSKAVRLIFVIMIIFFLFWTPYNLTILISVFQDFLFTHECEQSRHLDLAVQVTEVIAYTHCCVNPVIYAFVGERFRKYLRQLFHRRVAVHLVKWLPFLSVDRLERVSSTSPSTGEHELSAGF
The target of series [19] is Sodium-dependent noradrenaline transporter (Homo sapiens, UniProt P23975). Kind of series: Displacement of [3H]nisoxetine from recombinant human norepinephrine transporter after 120 mins by scintillation counting analysis.
Chain of Sodium-dependent noradrenaline transporter (P23975 whole entry): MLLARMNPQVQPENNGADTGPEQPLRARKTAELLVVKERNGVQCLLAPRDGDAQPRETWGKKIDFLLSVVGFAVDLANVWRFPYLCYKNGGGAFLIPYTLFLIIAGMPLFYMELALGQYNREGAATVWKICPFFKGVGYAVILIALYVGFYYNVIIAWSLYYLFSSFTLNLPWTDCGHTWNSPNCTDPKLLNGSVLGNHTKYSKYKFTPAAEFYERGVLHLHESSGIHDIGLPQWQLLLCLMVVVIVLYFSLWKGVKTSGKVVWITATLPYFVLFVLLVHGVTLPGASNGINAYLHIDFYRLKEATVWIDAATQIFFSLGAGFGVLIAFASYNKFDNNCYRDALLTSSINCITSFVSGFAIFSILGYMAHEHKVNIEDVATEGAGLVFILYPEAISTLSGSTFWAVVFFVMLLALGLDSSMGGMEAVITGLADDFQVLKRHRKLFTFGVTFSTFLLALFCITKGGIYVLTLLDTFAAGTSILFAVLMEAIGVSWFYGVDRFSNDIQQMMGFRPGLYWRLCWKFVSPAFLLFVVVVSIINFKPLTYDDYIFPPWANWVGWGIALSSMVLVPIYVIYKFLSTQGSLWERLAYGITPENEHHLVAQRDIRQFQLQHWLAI
For series [20], the target named is D(1A) dopamine receptor (Homo sapiens, UniProt P21728). The series is described as follows: Displacement of [3H]-SCH 23390 from human recombinant dopamine D1 receptor after 60 mins by scintillation counting analysis.
Chain of D(1A) dopamine receptor (P21728 whole entry): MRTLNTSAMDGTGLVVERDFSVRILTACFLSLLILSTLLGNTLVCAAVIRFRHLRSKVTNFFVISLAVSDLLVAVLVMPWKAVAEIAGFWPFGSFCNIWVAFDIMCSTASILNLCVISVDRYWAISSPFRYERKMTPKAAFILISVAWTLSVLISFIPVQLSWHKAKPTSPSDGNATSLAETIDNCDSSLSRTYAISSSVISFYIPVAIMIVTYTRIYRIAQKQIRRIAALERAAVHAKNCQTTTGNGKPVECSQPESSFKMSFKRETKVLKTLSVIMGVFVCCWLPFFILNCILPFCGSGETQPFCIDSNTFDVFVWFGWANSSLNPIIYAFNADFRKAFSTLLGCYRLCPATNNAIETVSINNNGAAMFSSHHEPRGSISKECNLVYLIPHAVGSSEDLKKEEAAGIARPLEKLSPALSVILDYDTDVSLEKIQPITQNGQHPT

Some results are limits rather than exact numbers.

Usually IC50 stands for the concentration at which inhibition is half-maximal. By inhibition is commonly meant the drop in the measured response relative to a control, in per cent. Usually Kd stands for the concentration at which binding is half-saturated.

Chain of B2 bradykinin receptor (P30411 whole entry): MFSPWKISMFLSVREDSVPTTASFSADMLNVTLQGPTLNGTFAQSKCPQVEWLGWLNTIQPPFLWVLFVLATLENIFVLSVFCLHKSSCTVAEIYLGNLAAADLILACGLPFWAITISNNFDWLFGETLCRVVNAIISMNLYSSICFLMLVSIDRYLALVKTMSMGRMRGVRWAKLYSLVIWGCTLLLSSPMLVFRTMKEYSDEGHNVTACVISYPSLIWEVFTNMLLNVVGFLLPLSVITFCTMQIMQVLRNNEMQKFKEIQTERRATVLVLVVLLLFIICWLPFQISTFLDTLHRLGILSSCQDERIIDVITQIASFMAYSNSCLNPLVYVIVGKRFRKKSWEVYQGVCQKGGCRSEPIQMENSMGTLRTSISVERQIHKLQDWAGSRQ
Chain of Adenosine receptor A1 (Homo sapiens) (P30542 whole entry): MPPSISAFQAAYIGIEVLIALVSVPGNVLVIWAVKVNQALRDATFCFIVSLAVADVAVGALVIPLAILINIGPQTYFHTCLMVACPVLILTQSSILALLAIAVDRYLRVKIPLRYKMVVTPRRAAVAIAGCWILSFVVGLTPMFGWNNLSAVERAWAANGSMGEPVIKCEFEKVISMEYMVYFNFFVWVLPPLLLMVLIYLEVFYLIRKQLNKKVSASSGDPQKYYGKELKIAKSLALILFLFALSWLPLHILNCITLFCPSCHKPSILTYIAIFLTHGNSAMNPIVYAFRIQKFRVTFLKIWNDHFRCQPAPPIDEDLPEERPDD
Chain of Histamine H2 receptor (P25021 whole entry): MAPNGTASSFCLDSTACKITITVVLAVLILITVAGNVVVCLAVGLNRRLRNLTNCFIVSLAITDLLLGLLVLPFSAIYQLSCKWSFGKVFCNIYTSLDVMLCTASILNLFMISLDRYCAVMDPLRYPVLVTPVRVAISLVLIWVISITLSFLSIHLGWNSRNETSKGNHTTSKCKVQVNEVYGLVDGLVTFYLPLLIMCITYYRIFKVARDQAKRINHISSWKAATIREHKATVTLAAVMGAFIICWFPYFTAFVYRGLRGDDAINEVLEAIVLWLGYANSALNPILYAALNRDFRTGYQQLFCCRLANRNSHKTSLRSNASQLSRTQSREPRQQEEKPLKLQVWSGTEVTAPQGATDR
Chain of Casein kinase I isoform epsilon (Homo sapiens) (P49674 whole entry, looked up, canonical isoform): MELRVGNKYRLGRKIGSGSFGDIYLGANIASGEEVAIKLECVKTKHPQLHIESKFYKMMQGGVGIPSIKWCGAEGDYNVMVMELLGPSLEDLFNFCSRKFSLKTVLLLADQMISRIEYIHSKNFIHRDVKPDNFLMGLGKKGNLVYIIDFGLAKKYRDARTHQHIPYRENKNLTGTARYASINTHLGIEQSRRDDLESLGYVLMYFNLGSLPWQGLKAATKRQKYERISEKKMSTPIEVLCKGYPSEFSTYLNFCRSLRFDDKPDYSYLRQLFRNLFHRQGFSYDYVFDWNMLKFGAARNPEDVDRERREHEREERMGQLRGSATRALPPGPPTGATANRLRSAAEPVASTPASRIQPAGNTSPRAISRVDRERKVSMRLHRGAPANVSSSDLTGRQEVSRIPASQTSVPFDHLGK
Chain of Kappa-type opioid receptor (P41145 whole entry): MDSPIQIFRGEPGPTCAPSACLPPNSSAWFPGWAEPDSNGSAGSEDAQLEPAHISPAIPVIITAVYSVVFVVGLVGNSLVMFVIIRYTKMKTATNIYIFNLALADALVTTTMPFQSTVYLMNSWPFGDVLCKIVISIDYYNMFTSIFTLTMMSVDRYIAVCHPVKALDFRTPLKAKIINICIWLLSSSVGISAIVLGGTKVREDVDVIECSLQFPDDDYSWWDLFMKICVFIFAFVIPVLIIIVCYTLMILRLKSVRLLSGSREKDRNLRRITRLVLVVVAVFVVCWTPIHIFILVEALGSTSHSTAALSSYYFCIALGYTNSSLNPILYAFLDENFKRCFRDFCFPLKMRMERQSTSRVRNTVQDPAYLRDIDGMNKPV

For `CC(C)(C)NS(=O)(=O)c1ccc(-c2sc(C(=O)N[C@H]3C[C@H](C(=O)O)C3)nc2CC2CCCCC2)c2ccccc12`, the IC50 in series [1] came out at 21 nM; in [2], 4.9 nM; in [10] it was 51 nM; in [13], 0.22 nM; in series [14], 297 nM; in series [18], 0.081 nM. The figures for the 50% inhibitory concentration (IC50) in series [19] and in [20] were 3.4 nM and 0.21 nM, respectively. In addition, the inhibition was under 10% in series [3]; 11% in [4]; under 10% in series [5]; under 10% in series [6]; 14% in [9]; 4% in series [11]. Moreover, the inhibition in series [12] was under 10%; in series [15], under 10%; in series [16], 86%. For the same molecule, the figures for the INH in [7] and in [17] were over 10 µM and 3.8 µM, respectively. In addition, the Kd in series [8] is 740 nM.
